# Assays:
# Assay type in all cases: in vivo
# [1] = test system: Western flower thrips, Frankliniella occidentalis (Pergande); experiment: Western flower thrips bioassay on treated first true cotton leaves (Example 5); settings: alone
# Protocol: Ten second instar larvae of the Western flower thrips, Frankliniella occidentalis (Pergande), were infested onto each leaf disc. […] The “Colby's Expected Action” was calculated using Colby's equation as discussed previously.
# [2] = test system: brown stink bug, Euschistus heros; experiment: Brown stink bug diet-treatment bioassay (Example 6); settings: alone
# [3] = test system: diamondback moth, Plutella xylostella; experiment: Diamondback moth bioassay on track-sprayed cabbage (Example 7); settings: alone, dose rate 0.000078 weight %
# Text: Three second-instar diamondback moth, Plutella xylostella, were infested onto each leaf disc.
# [4] = test system: Western plant bug, Lygus hesperus; experiment: Western plant bug bean-piece dip bioassay (Examples 10 and 11)
# Protocol: Bean pieces (about one inch-long) were used for the tests. Four bean pieces were placed in each tested active solution and left there for 10 minutes. Bean pieces were taken out of the active solution, and each piece was placed in a well in a 32-well tray and allowed to air dry. Three third-instar nymphs of Western plant bug, Lygus hesperus, were infested into each well.
# [5] = test system: brown stink bug, Euschistus heros; experiment: Brown stink bug bean-piece dip bioassay (Example 8); settings: alone
# Protocol: The active compounds were formulated in a 10% acetone solution with 0.025% non-ionic surfactant, TWEEN® 20. Bean pieces (about one inch-long) were used for the tests. Four bean pieces were placed in each tested active solution and left there for 10 minutes. Bean pieces were taken out of the active solution, and each piece was placed in a well in a 32-well tray and allowed to air dry. Three third-instar nymphs of brown stink bug, Euschistus heros, were infested into each well.
# The active compounds formulated in a 10% acetone solution with 0.025% non-ionic surfactant, TWEEN® 20 were tested against brown stink bugs, Euschistus heros, according to the procedure described in example 8A.
# [6] = test system: Western flower thrips, Frankliniella occidentalis; experiment: Western flower thrips cotton leaf punch dip bioassay (Example 9); settings: alone
# Protocol: The active compounds were formulated in a 10% acetone solution with 0.025% non-ionic surfactant, TWEEN® 20. Cotton leaf punches were used for bioassays. Two cotton leaf punches were placed in each solution and left there for 10 minutes. Leaves were taken out of the solution, placed on a piece of filter paper in separated Petri dishes, and air dried. Each leaf disc was considered a repetition. Five nymph of Western flower thrips, Frankliniella occidentalis, were infested per repetition.
SMILES,% Control Three Days After Treatment ([1]; dose rate 0.002 weight %) [%],% Control Three Days After Treatment ([1]; dose rate 0.02 weight %) [%],% Control Six Days After Treatment ([2]; dose rate 0.000039 weight %) [%],% Control Six Days After Treatment ([2]; dose rate 0.000078 weight %) [%],% Control Six Days After Treatment ([2]; dose rate 0.000156 weight %) [%],% Control Three Days After Treatment [3] [%],"% Control Three Days After Treatment ([4]; acetamiprid alone, dose rate 0.005 weight %) [%]","% Control Three Days After Treatment ([4]; acetamiprid alone, dose rate 0.02 weight %) [%]",% Control Four Days After Treatment ([5]; dose rate 0.0025 weight %) [%],% Control Four Days After Treatment ([5]; dose rate 0.01 weight %) [%],% Control Three Days After Treatment ([6]; dose rate 0.00002 weight %) [%],% Control Three Days After Treatment ([6]; dose rate 0.000078 weight %) [%],% Control Three Days After Treatment ([6]; dose rate 0.0003125 weight %) [%],% Control Three Days After Treatment ([6]; dose rate 0.00125 weight %) [%],% Control Three Days After Treatment ([6]; dose rate 0.005 weight %) [%],% Control Three Days After Treatment ([6]; dose rate 0.02 weight %) [%],"% Control Three Days After Treatment ([4]; dinotefuran alone, dose rate 0.000078 weight %) [%]","% Control Three Days After Treatment ([4]; dinotefuran alone, dose rate 0.00125 weight %) [%]","% Control Three Days After Treatment ([4]; dinotefuran alone, dose rate 0.005 weight %) [%]","% Control Three Days After Treatment ([4]; dinotefuran alone, dose rate 0.02 weight %) [%]"
"C/C(=N\C#N)N(C)Cc1ccc(Cl)nc1 [Acetamiprid, (1E)-N-[(6-chloro-3-pyridyl)methyl]-N′-cyano-N-methyl acetamidine]",30,60,0,0,9,4.17,0,33,,,,,,,,,,,,
"CN=C(NCC1CCOC1)N[N+](=O)[O-] (centres unmarked) [Dinotefuran, 2-methyl-1-nitro-3-[(tetrahydro-3-furanyl)methyl]guanidine]",,,,,,,,,50,75,0,0,0,0,10,0,0,8,17,92

# Reference: patent publication US9801376B2, “Synergistic pesticidal compositions and related methods” (Dow AgroSciences LLC, priority 2013, dated 2017)
